The target of series [1] is T1, GAK (Homo sapiens, UniProt O14976).
T1 sequence (O14976 1-1311): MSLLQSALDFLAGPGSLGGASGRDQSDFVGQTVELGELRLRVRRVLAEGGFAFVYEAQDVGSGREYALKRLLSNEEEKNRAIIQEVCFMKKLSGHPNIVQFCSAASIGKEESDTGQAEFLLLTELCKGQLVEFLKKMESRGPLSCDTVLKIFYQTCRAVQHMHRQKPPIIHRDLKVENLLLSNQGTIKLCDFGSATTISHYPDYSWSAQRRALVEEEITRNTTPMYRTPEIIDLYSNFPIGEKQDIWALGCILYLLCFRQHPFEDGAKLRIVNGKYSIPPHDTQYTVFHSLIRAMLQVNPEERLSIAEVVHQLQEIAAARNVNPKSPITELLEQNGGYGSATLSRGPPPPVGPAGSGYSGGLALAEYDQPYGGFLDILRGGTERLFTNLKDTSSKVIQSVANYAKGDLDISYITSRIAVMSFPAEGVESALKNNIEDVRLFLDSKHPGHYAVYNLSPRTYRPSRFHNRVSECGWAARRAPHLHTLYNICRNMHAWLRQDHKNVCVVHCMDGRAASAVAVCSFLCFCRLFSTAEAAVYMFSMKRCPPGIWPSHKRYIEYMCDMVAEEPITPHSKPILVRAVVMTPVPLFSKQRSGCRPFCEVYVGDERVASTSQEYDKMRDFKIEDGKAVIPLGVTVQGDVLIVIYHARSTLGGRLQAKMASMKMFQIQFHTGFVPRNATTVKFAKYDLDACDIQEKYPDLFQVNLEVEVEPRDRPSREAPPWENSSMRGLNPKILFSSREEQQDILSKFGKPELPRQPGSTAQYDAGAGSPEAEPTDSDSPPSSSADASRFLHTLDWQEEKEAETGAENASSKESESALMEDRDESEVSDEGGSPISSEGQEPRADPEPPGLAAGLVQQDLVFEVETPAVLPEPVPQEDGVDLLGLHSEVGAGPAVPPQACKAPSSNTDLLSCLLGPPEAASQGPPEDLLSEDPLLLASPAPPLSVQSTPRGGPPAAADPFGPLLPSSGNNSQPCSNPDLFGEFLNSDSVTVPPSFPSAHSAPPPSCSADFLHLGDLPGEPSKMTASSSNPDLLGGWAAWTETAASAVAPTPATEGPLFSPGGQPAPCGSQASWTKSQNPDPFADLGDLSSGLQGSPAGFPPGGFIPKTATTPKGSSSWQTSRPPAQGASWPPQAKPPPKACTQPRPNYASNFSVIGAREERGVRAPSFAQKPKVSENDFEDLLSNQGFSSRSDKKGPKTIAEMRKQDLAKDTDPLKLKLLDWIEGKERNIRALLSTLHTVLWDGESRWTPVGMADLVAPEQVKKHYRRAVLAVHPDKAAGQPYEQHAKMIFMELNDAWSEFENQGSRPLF
Kind of series: KINOMEscan active site-directed competition binding assay, GAK.

For the next series, the system named is Huh-7.5 cells. The experiment in a line: Cellular viability, alamarBlue-based assay. The following applies: HCVpp entry assay, 4 hour treatment. In general terms: Resazurin is reduced to fluorescent resorufin, in cell work by metabolically active cells.
The next series addresses EGFR (Homo sapiens, UniProt P00533). The experiment in a line: EGFR binding / anti-EGFR activity.
A further series has as its system HCV RNA replication. Kind of series: HCV RNA replication by luciferase assay after electroporation. The series is classed as cell-based, hepatitis C virus. The note with it: 72 hours postelectroporation, treated daily.
In a further series the test system is AP2M1 phosphorylation. The experiment in a line: AP2M1 phosphorylation by Western analysis in Huh-7.5 cells. The series is classed as cell-based, human. The note with it: calyculin A, versus DMSO control.
Series [2] concerns the target T1, GAK. The note with it: cited from earlier work.

Chain of EGFR (P00533 25-1210): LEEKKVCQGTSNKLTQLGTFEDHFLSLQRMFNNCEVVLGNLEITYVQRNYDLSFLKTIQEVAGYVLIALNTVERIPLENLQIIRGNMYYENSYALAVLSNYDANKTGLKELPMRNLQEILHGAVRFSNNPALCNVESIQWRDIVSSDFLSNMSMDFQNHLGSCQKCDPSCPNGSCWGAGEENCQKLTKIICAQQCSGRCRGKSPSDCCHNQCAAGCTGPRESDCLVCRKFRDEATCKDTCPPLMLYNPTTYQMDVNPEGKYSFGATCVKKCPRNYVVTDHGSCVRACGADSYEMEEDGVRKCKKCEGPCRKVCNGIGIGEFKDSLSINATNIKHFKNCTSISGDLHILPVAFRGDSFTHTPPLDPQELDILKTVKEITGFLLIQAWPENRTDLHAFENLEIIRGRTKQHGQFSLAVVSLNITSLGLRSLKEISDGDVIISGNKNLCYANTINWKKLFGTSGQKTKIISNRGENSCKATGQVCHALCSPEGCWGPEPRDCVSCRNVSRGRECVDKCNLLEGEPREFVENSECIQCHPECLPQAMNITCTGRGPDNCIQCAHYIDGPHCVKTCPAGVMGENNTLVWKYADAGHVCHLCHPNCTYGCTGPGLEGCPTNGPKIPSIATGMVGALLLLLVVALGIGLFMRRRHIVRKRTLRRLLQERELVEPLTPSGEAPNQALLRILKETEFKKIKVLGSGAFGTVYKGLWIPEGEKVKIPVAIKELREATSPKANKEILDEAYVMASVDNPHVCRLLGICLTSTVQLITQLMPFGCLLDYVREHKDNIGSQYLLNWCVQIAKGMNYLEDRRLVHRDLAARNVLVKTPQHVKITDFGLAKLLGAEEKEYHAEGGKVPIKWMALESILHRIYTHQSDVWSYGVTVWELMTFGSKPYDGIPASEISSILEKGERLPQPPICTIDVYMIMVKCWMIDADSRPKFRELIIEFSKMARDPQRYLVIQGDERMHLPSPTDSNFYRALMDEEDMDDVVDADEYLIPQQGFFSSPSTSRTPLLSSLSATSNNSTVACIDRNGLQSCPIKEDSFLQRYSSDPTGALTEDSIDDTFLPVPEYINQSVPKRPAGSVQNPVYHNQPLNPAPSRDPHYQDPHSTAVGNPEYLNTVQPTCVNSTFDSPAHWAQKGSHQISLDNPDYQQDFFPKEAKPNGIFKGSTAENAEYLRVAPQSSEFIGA

Take `c1cc2c(cc1-c1cnc3c(N4CCOCC4)snc3c1)OCO2` [Compound 12f, 4-(6-(Benzo[d][1,3]dioxol-5-yl)isothiazolo[4,3-b]pyridin-3-yl)morpholine]: at GAK [1], the “GAK affinity (in words)” value was “completely inactive”.

`c1csc(-c2cnc3c(N4CCOCC4)snc3c2)c1` [Compound 12a, 4-(6-(Thiophen-2-yl)isothiazolo[4,3-b]pyridin-3-yl)morpholine]: the “GAK affinity (in words)” value on GAK [1] was “equipotent”.

With `COc1cc(-c2cnc3c(N4CCOCC4)snc3c2)cc(OC)c1OC` [Compound 12g, 4-(6-(3,4,5-Trimethoxyphenyl)isothiazolo[4,3-b]pyridin-3-yl)morpholine], in the series with Huh-7.5 cells, the “effect on cellular viability (in words)” value is listed as “minimal effect on cellular viability”. Further, the “anti-EGFR activity (in words)” value on EGFR is on record as “lack anti-EGFR activity”. For the same compound, the “effect on HCV RNA replication (in words)” value in the series with HCV RNA replication is “did not affect HCV RNA replication”. Moreover, the “p-AP2M1 to AP2M1 ratio (in words)” value with AP2M1 phosphorylation is “reduced”.

Consider `COc1cc(-c2cnc3c(N4CCOCC4)snc3c2)ccc1N` [Compound 12i, 2-Methoxy-4-(3-morpholinoisothiazolo[4,3-b]pyridin-6-yl)aniline], for which the “anti-EGFR activity (in words)” value on EGFR is “lack anti-EGFR activity”. For the same compound, the “effect on HCV RNA replication (in words)” value in the series on HCV RNA replication is “did not affect HCV RNA replication”. Regarding `CCOc1cc2ncc(C#N)c(Nc3ccc(F)c(Cl)c3)c2cc1NC(=O)/C=C/CN(C)C` [pelitinib], the “Kd (in words)” value on GAK [2] is on record as “low nanomolar range”. As to `COc1ccc(-c2cnc3c(NCCc4ccccc4)snc3c2)cc1OC` [Compound 13k, 6-(3,4-dimethoxyphenyl)-N-phenethylisothiazolo[4,3-b]pyridin-3-amine], the “GAK affinity (in words)” value on GAK [1] is “completely lacking GAK affinity”. For `COc1ccc(-c2cnc3c(N4CCOCC4)snc3c2)c(OC)c1` [Compound 12c, 4-(6-(2,4-Dimethoxyphenyl)isothiazolo[4,3-b]pyridin-3-yl)morpholine], the “GAK affinity (in words)” value on GAK [1] is “lacks any affinity”.

The values are drawn from paper PMC4431592 (Journal of medicinal chemistry, 2015).
